What was measured:
human OX2 receptor = biological target: T1, human OX2 receptor (Homo sapiens, UniProt O43614); assay: IPone accumulation assay, CHO cells expressing OX2 (antagonism of orexin A); assay type: cell-based; details: CHO human OX2, orexin A EC80 challenge (40 nM), read-out: fpKb average OX2 (converted)
T1 sequence (O43614 1-444): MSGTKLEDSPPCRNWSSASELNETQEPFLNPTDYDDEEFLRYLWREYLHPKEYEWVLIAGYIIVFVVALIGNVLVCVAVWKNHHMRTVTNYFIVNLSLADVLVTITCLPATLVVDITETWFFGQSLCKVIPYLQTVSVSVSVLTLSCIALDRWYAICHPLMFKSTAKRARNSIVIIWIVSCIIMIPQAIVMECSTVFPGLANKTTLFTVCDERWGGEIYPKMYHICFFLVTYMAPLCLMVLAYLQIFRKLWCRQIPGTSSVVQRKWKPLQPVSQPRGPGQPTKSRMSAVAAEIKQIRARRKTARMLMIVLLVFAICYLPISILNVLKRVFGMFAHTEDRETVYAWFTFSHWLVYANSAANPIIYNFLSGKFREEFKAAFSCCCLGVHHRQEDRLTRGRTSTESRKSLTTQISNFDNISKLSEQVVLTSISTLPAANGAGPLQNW
Description: Generation of CHO stable cell lines expressing the human OX1R and OX2R. Stable cell lines for the human OX1R and OX2R receptors were generated through the transfection of CHO cells using the transfection reagent Genejuice (Novagen number 70967) and cDNA coding for either the human OX1R or OX2R. Cells were cultured in Sigma Nutrient Mixture F-12 Ham media (catalog number N6658) supplemented with 10% heat-inactivated FBS. Forty-eight hours after transfection, cells were harvested and placed under geneticin selection by culturing in Sigma Nutrient Mixture F-12 Ham media supplemented with 10% heat-inactivated FBS and geneticin (ThermoFisher Catalog number: 10131035). Selection of the final stable clone for each receptor was made on the basis of receptor expression, assay signal to noise and robustness though increasing passage. Selected clones for the human OX1R and OX2R were then frozen down into liquid nitrogen using Cell Freezing Medium-DMSO (Sigma-Aldrich catalog number: C6164).
(§1) IPone accumulation assay. A CHO cell line stably expressing either human OX1 or OX2 receptor was used with the IPone HTRF assay kit (CisBio: Part #62IPAPEJ) to measure receptor activation. The assay was optimised to measure the ability (potency; fpKb) of antagonists to reduce agonist (orexin A)-induced inositol phosphate turnover. Briefly, cells were plated onto half area 96-well white walled plates at a density of 12,500 cells/well. Sixteen hours post-plating cell growth media was replaced with antagonist concentration-response curve diluted in stimulation buffer (supplied with the kit). Cells were incubated in a humidified incubator (37° C.) for 30 min before an EC80 challenge concentration (˜20 nM (OX1) and 40 nM (OX2)) of orexin A (Tocris catalogue number 1455). After 30 min stimulation in a humidified incubator (37° C.) the assay was terminated by the addition of detection mixture as per manufacturer's instructions. The concentration of compound which reduced orexin-A stimulated turnover of inositol phosphates by 50% (IC50) was calculated by fitting to a four parameter sigmoidal dose response curve. The IC50 values were converted to fpKB values using the orexin A pEC50 value estimated on each plate as well as the challenge concentration interpolated from the orexin A control curve.

human OX1 receptor = biological target: T2, human OX1 receptor (Homo sapiens, UniProt O43613); assay: IPone accumulation assay, CHO cells expressing OX1 (antagonism of orexin A); assay type: cell-based; details: IPone accumulation, CHO human OX1, orexin A EC80 challenge (~20 nM); read-out: fpKb average OX1 (converted)
T2 sequence (O43613 1-425): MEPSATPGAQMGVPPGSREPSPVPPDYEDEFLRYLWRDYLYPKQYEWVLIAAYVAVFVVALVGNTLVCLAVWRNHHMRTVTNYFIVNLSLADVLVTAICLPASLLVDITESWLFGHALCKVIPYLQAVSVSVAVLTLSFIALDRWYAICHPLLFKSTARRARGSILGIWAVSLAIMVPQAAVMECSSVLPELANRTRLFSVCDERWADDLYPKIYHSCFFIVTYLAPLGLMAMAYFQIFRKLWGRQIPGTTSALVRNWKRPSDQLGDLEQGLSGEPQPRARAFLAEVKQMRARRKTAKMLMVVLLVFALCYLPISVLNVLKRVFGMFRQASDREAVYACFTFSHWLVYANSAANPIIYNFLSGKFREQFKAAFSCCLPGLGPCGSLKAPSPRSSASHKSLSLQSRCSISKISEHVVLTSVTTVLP
Description: as §1, with “Generation of CHO stable cell lines expressing the human OX1R and OX2R. Stable cell lines for the human OX1R and OX2R receptors were generated through the transfection of CHO cells using the transfection reagent Genejuice (Novagen number 70967) and cDNA coding for either the human OX1R or OX2R. Cells were cultured in Sigma Nutrient Mixture F-12 Ham media (catalog number N6658) supplemented with 10% heat-inactivated FBS. Forty-eight hours after transfection, cells were harvested and placed under geneticin selection by culturing in Sigma Nutrient Mixture F-12 Ham media supplemented with 10% heat-inactivated FBS and geneticin (ThermoFisher Catalog number: 10131035). Selection of the final stable clone for each receptor was made on the basis of receptor expression, assay signal to noise and robustness though increasing passage. Selected clones for the human OX1R and OX2R were then frozen down into liquid nitrogen using Cell Freezing Medium-DMSO (Sigma-Aldrich catalog number: C6164). IPone accumulation” for “IPone accumulation”, “(CisBio: Part #62[…]) to measure” for “(CisBio: Part #62IPAPEJ) to measure”, “challenge concentration ( 20 nM (OX1)” for “challenge concentration (˜20 nM (OX1)”

Row | Compound | Kb (human OX2 receptor) [µM] | Kb (human OX1 receptor) [µM]
1 | Cc1ncc(C2CCc3c(F)cccc3N(Cc3c(F)cc(Br)cc3F)C2=O)cc1C(C)(F)F (single isomer, unassigned) [Example 36, 1-(4-bromo-2,6-difluorobenzyl)-3-[5-(1,1-difluoroethyl)-6-methylpyridin-3-yl]-6-fluoro-1,3,4,5-tetrahydro-2H-1-benzazepin-2-one] | > 2 | 0.02
2 | Cc1ncc(C2CCc3c(F)cccc3N(Cc3c(F)cc(Br)cc3F)C2=O)cc1C(C)(F)F (single isomer, unassigned) [Example 35, 1-(4-bromo-2,6-difluorobenzyl)-3-[5-(1,1-difluoroethyl)-6-methylpyridin-3-yl]-6-fluoro-1,3,4,5-tetrahydro-2H-1-benzazepin-2-one] | > 2.51 | 0.0631
3 | CCCc1cc(F)c(CN2C(=O)N(c3cnc(C)c(C(C)(F)F)c3)CCc3c(F)cccc32)c(F)c1 [Example 34, 3-[5-(1,1-difluoroethyl)-6-methylpyridin-3-yl]-1-(2,6-difluoro-4-propylbenzyl)-6-fluoro-1,3,4,5-tetrahydro-2H-1,3-benzodiazepin-2-one] | > 2.51 | 0.0794
4 | COc1cc(F)c(CN2C(=O)N(c3cnc(OC)c(C(C)(F)F)c3)CCc3c(F)cccc32)c(F)c1 [Example 8, 3-[5-(1,1-difluoroethyl)-6-methoxypyridin-3-yl]-1-(2,6-difluoro-4-methoxybenzyl)-6-fluoro-1,3,4,5-tetrahydro-2H-1,3-benzodiazepin-2-one] | > 0.316 | 0.00316
5 | COc1ncc(C2CCc3c(F)cccc3N(Cc3c(F)cc(Br)cc3F)C2=O)cc1C(C)(F)F (single isomer, unassigned) [Example 12, 1-(4-bromo-2,6-difluorobenzyl)-3-[5-(1,1-difluoroethyl)-6-methoxypyridin-3-yl]-6-fluoro-1,3,4,5-tetrahydro-2H-1-benzazepin-2-one] | > 1 | 0.0126
6 | CCCc1cc(F)c(CN2C(=O)N(c3ccc(C)c(S(C)(=O)=O)c3)CCc3c(F)cccc32)c(F)c1 [Example 28, 1-(2,6-difluoro-4-propylbenzyl)-6-fluoro-3-[4-methyl-3-(methylsulfonyl)phenyl]-1,3,4,5-tetrahydro-2H-1,3-benzodiazepin-2-one] | > 3.98 | 0.0794

— patent US20210179578A1, “OX1 ANTAGONISTS” (Heptares Therapeutics Limited, priority 2017, published 2021)
